The values that follow come from a melting point compilation (Tetko et al.; mined from patent text by program, amines drawn as free bases though some values may be those of a salt).

`OCc1cccn1CCN1CCC(=C2c3ccccc3CCn3ccnc32)CC1` returned a melting point of 147 °C. In turn, `CCCCC1=C([N+](=O)[O-])C(c2cccc(Cl)c2Cl)c2c[nH]nc2N1` (stereo unspecified) registered a melting point of 220 °C.

As for `O=S(=O)(Cl)c1c(Cl)cc(F)cc1Cl`, the melting point is 57 °C. With `CSc1cccc(Oc2ncc(F)cc2C(=O)N[C@@H]2CCCC[C@@H]2O)c1` (relative stereo) the figure was 99 to 101 °C; with `O=Cc1cc([N+](=O)[O-])ccc1Sc1ccccc1`, 96 to 100 °C; with `O=[N+]([O-])c1ccc(OC2SCC(O)C(O)C2O)cc1` (stereo unspecified), 130 to 132 °C. With `COc1cc(N2CCN(C)CC2)ccc1-c1cnn2c(N)c(-c3cccc(O)c3)cnc12` the figure was 217 to 220 °C. As to `Cc1noc(NC(=O)N2CCN(c3cc(-c4ccccc4F)ncn3)CC2)c1C`, the melting point lay within 189 to 190 °C. With `Cc1ncc(Cn2c(NC3CCN(CCNC(=O)c4cc5ccccc5n4C)CC3)nc3ccccc32)o1` the figure was 104 °C; with `COc1ccc(NC(=O)c2ccc(Br)o2)cc1N1CCN(C)CC1`, 125 to 127 °C. With `COC(=O)c1ccc(S(=O)(=O)N2CCC(Sc3cc(C(C)(C)C)c(O)c(C(C)(C)C)c3)CC2)n1C` the figure was 181 to 183 °C. On to `COC1=CC(C)=NN(NC(=O)N=NS(=O)(=O)C2SCCN2OCC=CCl)N1` (stereo unspecified), for which the melting point is 145 to 147 °C. With `COC(=O)COc1cccc(CNC(=O)C2Cc3ccccc3N2S(=O)(=O)c2ccc(-c3cccc(C(F)(F)F)c3)cc2)c1` (stereo unspecified) the figure was 50 °C; with `Cc1n[nH]c(CC(=O)O)c1Oc1cc(Cl)cc(Cl)c1`, 156 to 158 °C. On to `CN1CN=C2C=C(Nc3ccc(I)cc3F)C(F)(C(N)=O)C=C21` (stereo unspecified), for which the melting point lay in the range of 265 to 268 °C.

The compound `CC(C)n1c(=O)nc(-c2cnc3ccccc3c2)c2cc3c(cc21)OCO3` gave a melting point of 279 to 281 °C. `CC1(C)CC(NCCNCCNC2CC(C)(C)N(O)C(C)(C)C2)CC(C)(C)N1O` showed a melting point of 118 to 124 °C. `CCOC(=O)C(C)OCc1cc2nc(Cl)ccc2n1S(=O)(=O)c1ccc2nc(NC(C)=O)sc2c1` (stereo unspecified) showed a melting point of 100 to 102 °C. With `CCOC(=O)c1ncn2c1CN(C)C(=O)c1cc([N+](=O)[O-])ccc1-2` the figure was 197 to 199 °C; with `Cc1nccc(C(N)=O)c1[N+](=O)[O-]`, 203 to 204 °C; with `CCOC(=O)CN(Cc1cc(-n2cc(C)nc2C)ccc1[N+](=O)[O-])C(=O)C(F)(F)F`, 172 to 176 °C. With `O=C(O)CCCCCSc1ccc(NS(=O)(=O)c2ccc(Cl)cc2)cc1` the figure was 160 to 163 °C; with `ClCc1nc2nc(Cl)c(Cl)nc2s1`, 126 to 128 °C; with `CCn1cc(CO)c(OCc2ccc(OCc3nc(-c4ccco4)oc3C)c(OC)c2)n1`, 117 to 118 °C. With `CS(=O)(=O)C(=C1CN(C(c2ccccc2)c2ccccc2)C1)c1ccccc1F` the figure was 188 °C; with `COC(=N)N1CCC(c2n[nH]c3ccccc23)CC1`, 153 to 155 °C. For `ClCCOc1ccc(C2=C(c3ccccc3)CCCc3ccccc32)cc1`, the melting point lay in the range of 171 to 172 °C. With `Cc1c(-c2ccccc2)sc2nc(NCCO)[nH]c(=O)c12` the figure was 227 to 229 °C; with `O=C(CN1C(=O)C2(COc3ccc(-c4cccnc4)cc32)c2ccccc21)Nc1ccccc1F` (stereo unspecified), 98 to 100 °C. With `CCCCCCCCCCC(O)COc1ccc(N2CCS(=O)(=O)CC2)cc1` (stereo unspecified) the figure was 84 °C.

Turning to `CC1(C)CC(=C(c2ccc(O)cc2)c2ccc(OCC(=O)O)cc2)CC(C)(C)C1`, the melting point fell in the range of 163 to 164 °C. With `COC(=O)CC(=O)C=Cc1ccccc1` the figure was 83 °C. With `CCCC(O)(CC)C(C)=NO` (stereo unspecified) the figure was 59 °C; with `CCOC(=O)ONC(=N)c1cc(C(C)(C)C)c(OCOCCOC)c(C(C)(C)C)c1`, 115 to 117 °C. `CCCC(=O)c1ccc(-c2ncccc2S(=O)(=O)Nc2ncc(C)nc2OC)cc1` gave a melting point of 130 to 131 °C.

As for `Cc1ccc(C(O)(Cc2nnnn2C)c2ccc(C)cc2F)c(F)c1`, the melting point is 150 to 151 °C. With `COCCn1cc(C(=O)NCc2ccc(Cl)cc2)c(=O)c2cc(CN(C)C[C@@H](O)c3ccccc3)sc21` the figure was 105 to 106 °C; with `O=C(CCC#Cc1cccc(CF)n1)Nc1ccc(F)cc1`, 110 °C; with `CCCCN(CCCC)c1ccc(C=Cc2ccc(C=CC3=C(C#N)C(=C(C#N)C#N)OC3(C)C)s2)c(OCc2ccccc2)c1`, 218 to 219 °C.

Compound `COC(=O)CCc1ccccc1Cc1ccccc1C(=O)O` gave a melting point of 123 to 126 °C.

`Cc1cc(-c2cc(C(F)(F)F)n3cnc(-c4ccncc4)c3n2)ccc1Cl` registered a melting point of 254 °C.

In the case of `Cc1nc(NC(=O)c2ccco2)sc1C(=O)c1sc(NC(=O)c2ccco2)nc1C`, the melting point lay within 198 to 199 °C. With `O=C1c2ccccc2C(=O)N1CCCc1cccnc1` the figure was 88 to 89 °C; with `O=C1NC(=O)C(c2cn(CCCO)c3ccccc23)=C1c1ccccc1[N+](=O)[O-]`, 193 to 195 °C; with `CCc1nc2ccccc2c(=O)n1CCNc1ccc(SC(C)(C)C(=O)O)cc1`, 124 to 126 °C. `Cc1nn(C2CCOC2)c(N)c1C#N` (stereo unspecified) had a melting point of 134 to 135 °C. In turn, `CC(C)(C)c1cc(CCC(=O)NCCNc2c(Cl)c(Cl)nc(Cl)c2C#N)cc(C(C)(C)C)c1O` gave a melting point of 185 to 189 °C. Consider `COc1ccc(C2=NN(c3ccccc3)C(=O)[C@H]3CC=CC[C@@H]23)cc1OC` (relative stereo), for which the melting point lay within 134 to 135 °C.

In the case of `CN(C(=O)c1ccc(-n2cc3ccccc3n2)cc1)C1CCN(C(=O)OC(C)(C)C)CC1`, the melting point was 176 to 177 °C. In turn, `CCCCc1nc2cccc(C(=O)OC)c2[nH]1` came in with a melting point of 85 °C.

Regarding `CC(=O)N(C)C(=N[N+](=O)[O-])NCc1csc(Cl)n1`, the melting point lay in the range of 105 to 108 °C. With `Cc1cc2c(nc(C)n2CCc2ccccc2)c(N(Cc2ccccc2)Cc2ccccc2)n1` the figure was 124 to 126 °C; with `CNC(=NC#N)NCCSCc1cc(C)c(CN(C)C)o1`, 86 to 88 °C.

With `COC(=O)C1=C(C)NC(c2csc(Cl)n2)=NC1c1ccc(F)cc1Cl` (stereo unspecified), the melting point lay within 160 to 162 °C. With `COc1ccc(-c2snnc2SC)cc1` the figure was 60.5 to 61 °C; with `C=CCOC(=O)C1=C(C)NC(C)=C(C(=O)OCC=C)C1c1ccccc1Cl`, 98 to 99 °C.

`O=C1OC(=O)c2c3ccccc3c(Cl)c3cccc1c23` displayed a melting point of 269 to 271 °C. `CC(C)(C)OC(=O)N1CCc2c(n(CCO)c3c(Cl)cc(Cl)cc23)CC1`: the melting point lay in the range of 183 to 184 °C. With `O=S(=O)(c1ccc(Br)cc1)N1CCC1` the figure was 145 °C; with `CCCc1nsc(Oc2cccc(NC(=O)OC(C)C)c2)n1`, 64 °C. As to `CCOc1ccc(NC(=O)c2cnc3c(N)cccc3c2)cc1`, the melting point was 187 to 189 °C.

On to `CCCc1c(OCc2cccc(C(=O)NCCCCc3cccnc3)c2)ccc(C(C)=O)c1O`, for which the melting point lay within 120 to 123 °C. With `O=C(c1cc(C(F)(F)F)cc(C(F)(F)F)c1)N1CCC2(CC1)C(=O)NCN2c1ccc(Cl)c(Cl)c1` the figure was 220 to 222 °C; with `Cn1c(C(F)(F)F)cc(Cl)c(-c2ccc(Cl)c(NS(C)(=O)=O)c2)c1=O`, 161 to 163 °C. `CC(C)(C(=O)OCC(=O)c1ccccc1)n1c(=O)[nH]c2cc(F)c(F)cc2c1=O` had a melting point of 174 to 176 °C.

In turn, `O=C(NCc1ccccc1)c1oc(=O)c2ncccc2c1-c1ccccc1` yielded a melting point of 188 to 189 °C. With `Cc1cc(OC(F)(F)F)ccc1NC(=O)c1cccc(I)c1C(=O)NC(C)CC(=O)N(C)C` (stereo unspecified) the figure was 104 °C; with `CCc1cccc2c3c([nH]c12)C(CC)(CC(C)O)OCC3` (stereo unspecified), 103 to 104 °C; with `CC(C)(CCC(=O)O)C(=O)Oc1cc(Cl)ccc1Oc1ccc(Cl)cc1Cl`, 125 to 128 °C. With `O=C(CCOc1cccc(CN2CCCCC2)c1)Nc1cccnc1` the figure was 92 to 96 °C; with `CCC(=NOCc1ccc(Cl)cc1)c1cc(Cl)ccc1N(C(C)=O)S(=O)(=O)C(F)(F)F`, 64 to 66 °C. With `Cc1cc(O)ccc1N=Cc1ccccc1O` the figure was 95 to 97 °C. In turn, `CN=c1c2c(C)c(C)n(-c3ccccc3)c2nc(C)n1C` yielded a melting point of 132 to 133 °C. In turn, `COc1cc(CCNc2ncnc3scnc23)ccc1Oc1c(F)cnc(C(F)(F)F)c1F` registered a melting point of 108 to 112 °C.

`CC(=O)C1=C(O)C(=C(C)Nc2ccc(F)cc2)C(=O)OC1=O`: the melting point lay in the range of 199 to 201 °C. Turning to `CCN(CC)c1cccc2nc3n(c12)CC(=O)CCN3c1ccc(Cl)cc1Cl`, the melting point fell in the range of 169 to 170 °C.

`CC(C)S(=O)c1ccc2[nH]nc(Nc3nccs3)c2c1` (stereo unspecified) yielded a melting point greater than 240 °C. With `O=c1c2c[nH]c3ccccc3c-2nn1-c1ccc(O)cc1`, the melting point lay in the range of 294 to 296 °C. With `CCOC(=O)C1CC(=O)C(N=Nc2ccc(Br)cc2)=C(O)C1` (stereo unspecified) the figure was 169 to 171 °C; with `Cc1c(C(=O)Nc2ccc(N3CCC(N4CCOCC4)CC3)c(C(N)=O)c2)cnn1-c1ccc(Cl)cc1`, 270 °C.

For the compound `CC(O)CN1CCCC(c2cccs2)=N1` (stereo unspecified), the melting point was 74 to 77 °C. For `Cc1cc(C)c2c(c1C)OC(=O)C2c1ccc(Br)cc1` (stereo unspecified), the melting point lay within 168 to 169 °C.

`CCCCSc1nc(N)nc2c1ncn2C1C=CC(CO)C1` (stereo unspecified) came in with a melting point of 120 to 123 °C. For the compound `CCOC(=O)c1c(O)nc(SCC)n1C(C)C`, the melting point lay in the range of 82 to 84 °C. With `O=c1oc2ccccc2n1CCN1CCc2c([nH]c3ccccc23)C1` the figure was 135 to 137 °C. Consider `COc1cc(C(C)C)c2c(c1)S(=O)(=O)N(COc1cc(C(=O)O)nn1-c1ccccc1)C2=O`, for which the melting point lay in the range of 193 to 194 °C.
